According to PMC7816042, “Insights into the Structure-Activity Relationship of Glycosides as Positive Allosteric Modulators Acting on P2X7 Receptors” (Molecular Pharmacology, 2021):

Tests used:
human P2X7 [1] = target: T1, human P2X7 (Homo sapiens, UniProt Q99572); design: method as in Helliwell et al., 2015; conditions: ref Helliwell et al., 2015; cited from earlier work
T1 construct: expressed in transfected cells
T1 sequence (Q99572 1-595): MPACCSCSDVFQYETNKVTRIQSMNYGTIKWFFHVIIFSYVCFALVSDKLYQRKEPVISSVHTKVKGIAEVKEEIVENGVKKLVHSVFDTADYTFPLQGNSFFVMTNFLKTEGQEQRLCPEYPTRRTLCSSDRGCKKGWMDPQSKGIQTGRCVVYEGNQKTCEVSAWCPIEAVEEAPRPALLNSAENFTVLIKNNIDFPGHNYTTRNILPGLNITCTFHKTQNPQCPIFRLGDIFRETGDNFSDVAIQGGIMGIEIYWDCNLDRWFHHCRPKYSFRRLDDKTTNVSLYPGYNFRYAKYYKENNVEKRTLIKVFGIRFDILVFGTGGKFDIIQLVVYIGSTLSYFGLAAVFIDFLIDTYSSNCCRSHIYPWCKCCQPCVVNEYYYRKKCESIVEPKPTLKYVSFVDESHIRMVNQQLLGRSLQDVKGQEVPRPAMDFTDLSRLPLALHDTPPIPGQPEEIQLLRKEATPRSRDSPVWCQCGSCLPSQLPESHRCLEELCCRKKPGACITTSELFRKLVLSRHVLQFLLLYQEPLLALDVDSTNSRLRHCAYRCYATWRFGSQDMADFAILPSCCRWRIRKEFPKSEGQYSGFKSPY

human P2X7 [2] = target: T1, human P2X7; experiment: YO-PRO-1 dye uptake assay in HEK-hP2X7 cells; type: cell-based; conditions: for PAM effect on ATP dose-response curve: result in words; for Effect of AZ10606120 pretreatment on response to ATP + glycoside (P2X7 dependence): 10 µM AZ10606120 pretreatment
Experimental: ATP-induced dye uptake experiments were performed as described previously ([Bidula et al., 2019b]). Briefly, HEK-hP2X7 cells were plated at 2 × 10^4 cells per well (100 μl per well) in complete medium and left overnight to attach to poly-D-lysine–coated 96-well plates. YO-PRO-1 iodide was prepared in a low divalent buffered solution ([…], 2 mM KCl, 13 mM D-glucose, 10 mM HEPES, 0.2 mM CaCl2 pH 7.3) to a final concentration of 2 μM. Medium was removed from the plate using a manual multichannel pipette and YO-PRO-1 containing buffer applied to wells (180 μl per well). […] A Flexstation 3 plate reader (Molecular Devices, Sunnyvale, CA) was used to record YO-PRO-1 fluorescence in HEK-hP2X7 for 300 seconds after the addition of ATP (at 10× final concentration) with/without ginsenoside compounds or vehicle (DMSO). Plates were allowed to warm up to 37°C for 10 minutes before initiating the recording. Baseline recordings were made for 40 seconds before compound addition using the Flexstation 3 fluidics system. YO-PRO-1 fluorescence was measured at 520 nm after excitation at 490 nm (auto cutoff at 495 nm), and the sample interval was 3.5 seconds. Flexstation settings were photomultiplier tube (PMT) medium, six reads per well, pipette height 170, and a rate of injection of 3. Data were acquired using Softmax Pro version 5.4 (Molecular Devices). To analyze the data, area under the dye uptake curve was calculated in Softmax Pro version 5 using zero baseline data with a lag time of 50 seconds (50–300 seconds).
(§1) Results are expressed as means ± S.D. from the indicated number of experiments. For YO-PRO-1 dye uptake and intracellular calcium experiments, each independent experiment used triplicate wells, and the means of the replicates were collated and plotted. Technical replicates were used to ensure reliability of fluorescence values. […] Dose-response curves were plotted by a nonlinear regression fit with variable slope using GraphPad Prism software version 7. Half-maximal responses are expressed as EC50 values with 95% confidence intervals. These values were calculated from the collated data for each compound from three independent experiments. Statistical differences were determined by analysis of the data by one-way ANOVA followed by Dunnett’s multiple comparison test or Sidak’s multiple comparison test using GraphPad Prism version 7. P < 0.05 was the accepted minimum level of significance.

THP-1 cells = experiment: Cell viability assay (resazurin/Alamar blue) in THP-1 cells; type: cell-based, human; conditions: 500 µM ATP
Experimental: (§2) HEK-hP2X7 or THP-1 cells were seeded at 5 × 10^3 cells per well in a volume of 100 μl for 24 hours in 96-well plates (Nunclon Edge plates, catalog number 167425; Thermo Scientific). Cells were plated in DMEM:F12 medium or RPMI 1640 medium containing 1% FBS and penicillin/streptomycin for 24 hours in a humidified incubator at 37°C with a constant supply of 5% CO2. Edge wells of the plates were filled with autoclaved distilled water to prevent evaporation of media from wells containing cells. The compounds and ATP were made at 2× final concentration in 1% FBS DMEM:F12 and 100 μl added to the cells for 24 hours. After incubation, resazurin sodium salt (CAS 62758-13-8; Sigma Aldrich) at 0.1 mg/ml in sterile PBS was added to the plate (20 into 200 µl culture medium per well). Cells were incubated for a further 2 hours in a humidified incubator at 37°C with a supply of 5% CO2. A Flexstation 3 microplate reader was used to acquire data. Endpoint fluorescence data were measured using 570 nm excitation wavelength, 600 nm emission wavelength (cutoff at 590 nm), and three reads per well (PMT low). Data were analyzed by performing background correction through subtracting blank medium readings (without cells) from all samples and then normalizing each sample to medium treated cells (control treatment, 100%) as percentage of control.
Results are expressed as means ± S.D. from the indicated number of experiments. For YO-PRO-1 dye uptake and intracellular calcium experiments, each independent experiment used triplicate wells, and the means of the replicates were collated and plotted. Technical replicates were used to ensure reliability of fluorescence values. Cell viability data were normalized to the vehicle control for each experiment after background correction had been performed. […] These values were calculated from the collated data for each compound from three independent experiments. Statistical differences were determined by analysis of the data by one-way ANOVA followed by Dunnett’s multiple comparison test or Sidak’s multiple comparison test using GraphPad Prism version 7. […]

[3] = test system: nontransfected HEK-293 cells; experiment: YO-PRO-1 dye uptake in parental nontransfected HEK-293 cells; type: cell-based, human; conditions: drug alone
HEK-hP2X7 cells = experiment: Cell viability assay (resazurin/Alamar blue) in HEK-hP2X7 cells; type: cell-based, human; conditions: 24 hours
Experimental: as §2
Results are expressed as means ± S.D. from the indicated number of experiments. For YO-PRO-1 dye uptake and intracellular calcium experiments, each independent experiment used triplicate wells, and the means of the replicates were collated and plotted. Technical replicates were used to ensure reliability of fluorescence values. Cell viability data were normalized to the vehicle control for each experiment after background correction had been performed. Dose-response curves were plotted by a nonlinear regression fit with variable slope using GraphPad Prism software version 7. Half-maximal responses are expressed as EC50 values with 95% confidence intervals. These values were calculated from the collated data for each compound from three independent experiments. Statistical differences were determined by analysis of the data by one-way ANOVA followed by Dunnett’s multiple comparison test or Sidak’s multiple comparison test using GraphPad Prism version 7. P < 0.05 was the accepted minimum level of significance.

[4] = target: T2, endogenous P2X7 in THP-1 cells (Homo sapiens, UniProt Q99572); experiment: Fura-2 calcium measurements in THP-1 monocytes; type: cell-based; conditions: 500 µM ATP co-applied with 10 µM glycoside
T2 sequence (Q99572 1-394 limits assumed): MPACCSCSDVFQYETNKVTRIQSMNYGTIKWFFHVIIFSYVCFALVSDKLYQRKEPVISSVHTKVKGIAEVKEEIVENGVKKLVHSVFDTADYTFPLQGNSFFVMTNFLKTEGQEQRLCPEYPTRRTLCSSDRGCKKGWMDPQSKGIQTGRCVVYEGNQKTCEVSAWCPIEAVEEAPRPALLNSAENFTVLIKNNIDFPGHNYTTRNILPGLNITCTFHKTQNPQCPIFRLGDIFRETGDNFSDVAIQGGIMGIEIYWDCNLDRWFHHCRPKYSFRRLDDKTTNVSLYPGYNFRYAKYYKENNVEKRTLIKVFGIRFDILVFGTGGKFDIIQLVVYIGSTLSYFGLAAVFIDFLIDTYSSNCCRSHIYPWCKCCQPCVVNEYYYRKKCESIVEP
Experimental: THP-1 cells were pelleted by centrifugation (300g, 5 minute), washed, and resuspended in Hanks’ balanced salt solution buffer containing 2 μM fura-2 AM (HelloBio) and 250 μM (±)-sulfinpyrazone. Cells were loaded for 1 hour in a waterbath at 37°C while shielded from light with foil. Loaded cells were washed once with 5 ml Hanks’ balanced salt solution to remove excess fura-2 AM dye. THP-1 cells were then resuspended, counted, and plated at 2 × 10^5 cells per well in a standard clear 96-well plate (NUNC 167008; Thermo Scientific) in low divalent assay buffer without Mg^2+ (145 mM NaCl, 2 mM KCl and 2 mM CaCl2, 13 mM glucose, 10 mM HEPES, pH 7.3) containing 250 μM (±)-sulfinpyrazone. The 10× concentration of agonist (ATP) was prepared in the same assay buffer. ATP was injected automatically into wells at 30 seconds in a Flexstation 3 microplate reader. Ratiometric data were acquired using 340 and 380 nm for excitation wavelengths, 520 nm as the emission wavelength, and six reads per well (PMT medium). Area under the curve was calculated using standard zero baseline normalization with a lag time 0–300 seconds using SoftMax Pro version 5.4 software.
as §1

## CC(C)=CCC[C@](C)(O)[C@H]1CC[C@]2(C)[C@@H]1[C@H](O)C[C@@H]1[C@@]3(C)CC[C@H](O)C(C)(C)[C@@H]3CC[C@]12C [PPD, protopanaxadiol]
Human P2X7 [1]
  PAM activity at human P2X7: no activity
Human P2X7 [2]; 10 µM glycoside, HEK-hP2X7
  PAM effect on ATP dose-response curve: no effect on the ATP dose-response curve

## CC(C)=CCC[C@](C)(O)[C@H]1CC[C@]2(C)[C@@H]1[C@H](O)C[C@@H]1[C@@]3(C)CC[C@H](O[C@@H]4O[C@H](CO)[C@@H](O)[C@H](O)[C@H]4O)C(C)(C)[C@@H]3CC[C@]12C [ginsenoside-Rh2]
Human P2X7 [1]
  PAM activity at human P2X7: able to potentiate hP2X7 responses

## Nc1ncnc2c1ncn2[C@@H]1O[C@H](COP(=O)(O)OP(=O)(O)OP(=O)(O)O)[C@@H](O)[C@H]1O [ATP, reference compound]
THP-1 cells; 24 hours
  Cell viability after ATP: 73.3% ± 14.4%
Human P2X7 [2]; average, n = 5 experiments, HEK-hP2X7, read-out: EC50 for ATP + vehicle (DMSO)
  EC50: 219 µM

## C[C@H]1O[C@@H](O[C@H]2CC[C@@]3(C)[C@@H](CC[C@]4(C)[C@@H]3C=C[C@]35OC[C@@]6(CCC(C)(C)C[C@H]63)[C@@H](O)C[C@]54C)[C@]2(C)CO)[C@H](O)[C@@H](O[C@@H]2O[C@H](CO)[C@@H](O)[C@H](O)[C@H]2O)[C@H]1O [Saikosaponin A, saikosaponin A]
Human P2X7 [2]
  Effect of AZ10606120 pretreatment on response to ATP + glycoside (P2X7 dependence): unaffected by AZ10606120 pretreatment
Human P2X7 [2]; 200 µM ATP, 10 µM glycoside, compared with ATP + DMSO
  ATP-induced YO-PRO-1 response in fixed-concentration screen: large increase
Human P2X7 [2]; YO-PRO-1 uptake without ATP or without P2X7
  Toxic effect on cells: toxic effect on the cells
Human P2X7 [2]; drug alone
  YO-PRO-1 uptake in HEK-hP2X7 cells in the absence of ATP: could induce YO-PRO-1 uptake
[3]
  YO-PRO-1 uptake in nontransfected HEK-293 cells (no P2X7): could induce YO-PRO-1 uptake

## Cl.Cl.O=C(CC12CC3CC(CC(C3)C1)C2)Nc1cccc2nc(NCCNCCO)ccc12 [AZ10606120, reference compound]
HEK-hP2X7 cells; AZ10606120 pretreatment
  Antagonist effect on loss of viability by ATP + ginsenoside-F2 or 20(S)-Rg3: prevented
THP-1 cells
  Antagonist effect on ATP-induced loss of viability: lack of effect

## CC(C)=CCCC(C)(OC1OC(CO)C(O)C(O)C1O)C1CCC2(C)C1C(O)CC1C3(C)CCC(O)C(C)(C)C3CCC12C (stereo not shown) [Ginsenoside-CK]
HEK-hP2X7 cells
  Cell viability in combination with ATP: very effective at enhancing cell death
THP-1 cells; 24 hours
  Enhancement of ATP-induced cell death: could significantly enhance this ATP-induced cell death
Human P2X7 [1]
  PAM activity at human P2X7: highest activity
Human P2X7 [2]
  Effect of AZ10606120 pretreatment on response to ATP + glycoside (P2X7 dependence): abolished
Human P2X7 [2]; 10 µM glycoside, HEK-hP2X7
  PAM effect on ATP dose-response curve: mixed type I/II effects
Human P2X7 [2]; maximum response defined at 1 mM ATP, 10 µM glycoside
  Maximum response (fold increase): 2.4–4.4 fold
[4]
  Effect on ATP-induced calcium response: increased the peak response and the sustained elevation in [Ca^2+]i
